These results are taken from US9303033B2, “Pyrazolopyrimidines and related heterocycles as CK2 inhibitors” (SENHWA BIOSCIENCES, INC., priority 2009, dated 2016).

Like-named read-outs stand apart in the source and are kept apart here. A value given as a limit tells only on which side of the number the result lay.

For one test, the target named is CK2 ααββ (Homo sapiens (Human), UniProt P68400). In words: CK2 assay (cell-free, 33P-ATP, phosphocellulose filter plate). It counts as biochemical.
The target in the next test is recombinant PIM-1 (Homo sapiens (Human), UniProt P11309). As to the kind of experiment: PIM-1 assay (33P-ATP filter binding). It is filed as biochemical. Particulars: read-out: PIM1: IC50 (30 μM ATP).
Sequence of recombinant PIM-1 (P11309 whole entry): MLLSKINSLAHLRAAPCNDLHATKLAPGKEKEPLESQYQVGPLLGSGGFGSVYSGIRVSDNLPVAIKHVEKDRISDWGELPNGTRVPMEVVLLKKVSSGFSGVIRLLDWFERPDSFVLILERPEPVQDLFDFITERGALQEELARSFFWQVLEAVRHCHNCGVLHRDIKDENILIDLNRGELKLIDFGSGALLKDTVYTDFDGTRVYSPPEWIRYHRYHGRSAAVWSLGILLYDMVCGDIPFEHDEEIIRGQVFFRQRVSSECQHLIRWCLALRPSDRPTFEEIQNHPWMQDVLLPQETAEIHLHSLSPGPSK
For another test, the target named is recombinant human PIM2 (Homo sapiens (Human), UniProt Q9P1W9). As to the kind of experiment: PIM-2 assay (33P-ATP filter binding). It is filed as biochemical. The following applies: for IC50: PIM2: IC50 (5 μM ATP), 5 μM ATP.
Sequence of recombinant human PIM2 (Q9P1W9 whole entry): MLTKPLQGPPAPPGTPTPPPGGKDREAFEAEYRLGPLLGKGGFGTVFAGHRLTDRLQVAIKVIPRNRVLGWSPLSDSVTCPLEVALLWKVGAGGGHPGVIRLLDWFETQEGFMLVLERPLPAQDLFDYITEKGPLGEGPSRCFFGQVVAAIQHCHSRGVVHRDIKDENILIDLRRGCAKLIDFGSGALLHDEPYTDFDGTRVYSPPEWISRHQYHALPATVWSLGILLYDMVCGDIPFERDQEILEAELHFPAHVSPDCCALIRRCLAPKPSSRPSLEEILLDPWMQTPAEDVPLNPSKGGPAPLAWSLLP
The test system of test [1] is BxPC3 human pancreatic adenocarcinoma cells. In words: Cell proliferation assay with Alamar Blue (AB), BxPC3. It is filed as cell-based. The essentials:
(§1)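 4,000–5,000 cells per well were exposed to compound for four days at 37° C, 5% CO2. Alamar Blue was then added for four hours, and fluorescence was read at 544 nm excitation / 590 nm emission.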
For orientation: The colour change of resazurin is a common sign of viable cells or microbes.

In another test the test system is MDAMB453. As to the kind of experiment: Cell proliferation assay with Alamar Blue (AB), MDAMB453. It counts as cell-based. Put shortly: as §1
The mark [2] stands for this setting: Homo sapiens, BXPC-3, read-out: AB: BxPC3.
The mark [3] stands for this setting: Homo sapiens, MDA-MB-453, MDAMB453 cells, read-out: AB: MDAMB453.

Sequence of CK2 ααββ (P68400 whole entry): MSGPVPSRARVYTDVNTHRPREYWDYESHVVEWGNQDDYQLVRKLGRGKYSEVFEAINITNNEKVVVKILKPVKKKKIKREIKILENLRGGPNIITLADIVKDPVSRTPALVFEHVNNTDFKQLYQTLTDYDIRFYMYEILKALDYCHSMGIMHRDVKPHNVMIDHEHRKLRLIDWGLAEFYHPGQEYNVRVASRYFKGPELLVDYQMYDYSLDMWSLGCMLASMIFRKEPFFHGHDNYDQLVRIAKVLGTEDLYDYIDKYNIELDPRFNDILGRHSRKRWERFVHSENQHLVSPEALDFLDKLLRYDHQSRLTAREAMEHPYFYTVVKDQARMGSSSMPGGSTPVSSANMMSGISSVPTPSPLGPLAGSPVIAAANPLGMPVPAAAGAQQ
Sequence of CK2 ααββ (P67870 whole entry partner): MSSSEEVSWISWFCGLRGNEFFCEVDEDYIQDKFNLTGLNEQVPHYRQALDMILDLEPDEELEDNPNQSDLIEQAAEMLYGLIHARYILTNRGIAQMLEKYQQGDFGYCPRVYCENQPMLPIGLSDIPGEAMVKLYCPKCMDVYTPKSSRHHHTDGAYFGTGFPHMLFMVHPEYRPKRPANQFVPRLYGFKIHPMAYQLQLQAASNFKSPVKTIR
Experimental for CK2 ααββ: Modulatory activity of compounds described herein was assessed in vitro in cell-free CK2 assays by the following method.
Reactions were maintained for 40 min at 23° C. The reactions were quenched with 100 ul of 0.75% Phosphoric acid, then transferred to and filtered through a Phosphocellulose filter plate (Millipore, MSPH-N6B-50). After washing each well 4 times with 0.75% Phosphoric acid, scintillation fluid (20 uL) was added to each well and the residual radioactivity was measured using a Wallac luminescence counter.
Experimental for recombinant PIM-1: (SEQ ID NO.: 5), 10 mM MgAcetate, 15 uM ATP, [γ-^33P-ATP] (specific activity approx. 500 cpm/pmol), DMSO 4% and test inhibitor compound at the required concentration. The reaction was initiated by the addition of the Magnesium ATP mixture. After 40 min incubation at 23° C., the reactions were quenched by the addition of 100 ul 0.75% Phosphoric acid, and the labeled peptide collected by filtration through a phosphocellulose filter plate. The plate was washed 4 times with 0.075% phosphoric acid (100 ul per well) and then, after the addition of scintillation fluid (20 ul per well), the counts were measured by a scintillation counter.
Experimental for recombinant human PIM2: Test compounds dissolved and diluted in DMSO (2 μl) were added to a reaction mixture comprising 10 μl of 5× Reaction Buffer (40 mM MOPS pH 7.0, 5 mM EDTA), 10 μl of recombinant human PIM2 solution (4 ng PIM-2 dissolved in dilution buffer (20 mM MOPS pH 7.0; EDTA 1 mM; 5% Glycerol; 0.01% Brij 35; 0.1%; 0.1% 2-mercaptoethanol; 1 mg/ml BSA)) and 8 ul of water.

For the molecule `CC(C)CNc1cc(NC2CC2)n2ncc(/C=C3\SC(=O)NC3=O)c2n1` [Example F3], the figures for the IC50 against CK2 ααββ, at recombinant PIM-1 and at recombinant human PIM2 were less than 1000 nM, 2060 nM and 1640 nM, respectively.

For `CCN1CCCC1CNc1cc(NC2CC2)n2ncc(/C=C3\SC(=O)NC3=O)c2n1` (centres unmarked) [Example G3], the IC50 was less than 100 nM at CK2 ααββ; 2060 nM on recombinant PIM-1; 9450 nM in test [1] (setting [2]); 1850 nM at recombinant human PIM2; 7700 nM in the test with MDAMB453 (setting [3]).

As for `CC(O)CNc1cc(NC2CC2)n2ncc(/C=C3\SC(=O)NC3=O)c2n1` (centres unmarked) [Example H3], the values for the IC50 against CK2 ααββ, at recombinant PIM-1 and at recombinant human PIM2 were less than 1000 nM, 2390 nM and more than 2500 nM, respectively.

In the case of `CN(C)c1cc(NC2CC2)n2ncc(/C=C3\SC(=O)NC3=O)c2n1` [Example I3], the IC50 at CK2 ααββ was less than 100 nM; on recombinant PIM-1, more than 2500 nM; at recombinant human PIM2 it was 876 nM.

For the molecule `O=C1NC(=O)/C(=C/c2cnn3c(NC4CC4)cc(Nc4cccc(Cl)c4)nc23)S1` [Example J3], the values for the IC50 against CK2 ααββ, on recombinant PIM-1 and on recombinant human PIM2 were less than 1000 nM, more than 2500 nM and more than 2500 nM, respectively.

Take `O=C1NC(=O)/C(=C/c2cnn3c(NC4CC4)cc(N4CCOCC4)nc23)S1` [Example K3]: the IC50 at CK2 ααββ is less than 1000 nM; at recombinant PIM-1, 918 nM; at recombinant human PIM2, 1390 nM.

As for `CCN(CC)c1cc(NC2CC2)n2ncc(/C=C3\SC(=O)NC3=O)c2n1` [Example L3], the IC50 is less than 1000 nM against CK2 ααββ, more than 2500 nM on recombinant PIM-1 and 1430 nM on recombinant human PIM2.

Turning to `CN1CCC(N(C)c2cc(NC3CC3)n3ncc(/C=C4\SC(=O)NC4=O)c3n2)C1` (centres unmarked) [Example M3], the IC50 was less than 100 nM on CK2 ααββ, 1450 nM on recombinant PIM-1 and 1440 nM on recombinant human PIM2.

As for `O=C1NC(=O)/C(=C/c2cnn3c(NC4CC4)cc(NCCF)nc23)S1` [Example N3], the IC50 is less than 1000 nM on CK2 ααββ, more than 2500 nM at recombinant PIM-1 and more than 2500 nM at recombinant human PIM2.

For `CN1C(=O)S/C(=C\c2cnn3c(NC4CC4)cc(Nc4cccc(Cl)c4)nc23)C1=O` [Example P3], the values for the IC50 against CK2 ααββ, on recombinant PIM-1 and at recombinant human PIM2 were less than 1000 nM, more than 2500 nM and more than 2500 nM, respectively.

Consider `O=C1NC(=O)/C(=C/c2cnn3c(NC4CC4)cc(-c4cccnc4)nc23)N1` [Example U4], for which the IC50 on CK2 ααββ was less than 10 nM; in test [1] (setting [2]), 8130 nM; on recombinant human PIM2, more than 2500 nM; in the test on MDAMB453 (setting [3]) it was 1260 nM.

`O=C1NC(=O)C(=Cc2cnn3c(NC4CC4)cc(Nc4ccc(OCCN5CCOCC5)c(Cl)c4)nc23)N1` [Example U42]: the IC50 against CK2 ααββ was less than 10 nM; in test [1] (read-out: AB: BxPC3 IC50) it was 2460 nM; in the test on MDAMB453 (MDAMB453 cells, read-out: AB: MDAMB453 IC50), 1090 nM. Moreover, the “PIM2: % inh […]” value on recombinant human PIM2 (at […] compound) is given as 48.912%.

`O=C1NC(=O)/C(=C/c2cnn3c(NCC4CC4)cc(Nc4cccnc4)nc23)N1` [Example V1]: the IC50 against CK2 ααββ was less than 100 nM; in test [1] (setting [2]), 6190 nM; on recombinant human PIM2 it was more than 2500 nM; in the test with MDAMB453 (setting [3]) it was 5090 nM.

For `CN1CCC(Nc2cc(NC3CC3)n3ncc(/C=C4\NC(=O)NC4=O)c3n2)CC1` [Example V2], the IC50 at CK2 ααββ was less than 10 nM; in test [1] (setting [2]), 1630 nM; at recombinant human PIM2, 1370 nM; in the test on MDAMB453 (setting [3]), 1480 nM.

Consider `O=C1NC(=O)/C(=C/c2cnn3c(NC4CC4)cc(-c4cccc(CO)c4)nc23)N1` [Example V3], for which the IC50 was less than 10 nM on CK2 ααββ, 5170 nM in test [1] (setting [2]), 649 nM on recombinant human PIM2 and 477 nM in the test on MDAMB453 (setting [3]).

As for `CNc1cc(-c2cccc(CNC(C)=O)c2)nc2c(/C=C3\NC(=O)NC3=O)cnn12` [Example V4], the IC50 against CK2 ααββ was less than 100 nM; in test [1] (setting [2]), more than 30000 nM; on recombinant human PIM2, more than 2500 nM; with MDAMB453 (setting [3]), 12400 nM.

Take `Cc1ccc(Nc2cc(NCC3CC3)n3ncc(/C=C4\NC(=O)NC4=O)c3n2)nc1` [Example W1]: the IC50 was less than 100 nM against CK2 ααββ, 9210 nM in test [1] (setting [2]), more than 2500 nM at recombinant human PIM2 and 7420 nM with MDAMB453 (setting [3]).

Consider `COC(=O)c1cccc(-c2cc(NC3CC3)n3ncc(/C=C4\NC(=O)NC4=O)c3n2)c1` [Example W3], for which the IC50 against CK2 ααββ was less than 10 nM; in test [1] (setting [2]) it was 2050 nM; at recombinant human PIM2 it was more than 2500 nM; in the test on MDAMB453 (setting [3]) it was 1710 nM.

Take `CC(=O)c1cccc(-c2cc(NC3CC3)n3ncc(/C=C4\NC(=O)NC4=O)c3n2)c1` [Example W4]: the IC50 was less than 10 nM against CK2 ααββ, more than 30000 nM in test [1] (setting [2]), 2080 nM at recombinant human PIM2 and 12300 nM in the test on MDAMB453 (setting [3]).

`O=C1NC(=O)/C(=C/c2cnn3c(NCC4CC4)cc(Nc4ccc(Cl)nc4)nc23)N1` [Example X1]: the IC50 against CK2 ααββ is less than 100 nM; in test [1] (setting [2]), 7990 nM; on recombinant human PIM2, more than 2500 nM; with MDAMB453 (setting [3]) it was 6940 nM.

Turning to `CS(=O)(=O)c1cccc(-c2cc(NC3CC3)n3ncc(/C=C4\NC(=O)NC4=O)c3n2)c1` [Example X3], the IC50 against CK2 ααββ was less than 10 nM; in test [1] (setting [2]) it was 13100 nM; on recombinant human PIM2 it was more than 2500 nM; in the test with MDAMB453 (setting [3]), 517 nM.

As for `CCS(=O)(=O)Nc1cccc(-c2cc(NC3CC3)n3ncc(/C=C4\NC(=O)NC4=O)c3n2)c1` [Example X4], the IC50 against CK2 ααββ is less than 10 nM; in test [1] (setting [2]), more than 30000 nM; at recombinant human PIM2, 1730 nM; in the test with MDAMB453 (setting [3]) it was more than 30000 nM.

On to `CCCCS(=O)(=O)Nc1cccc(-c2cc(NC3CC3)n3ncc(/C=C4\NC(=O)NC4=O)c3n2)c1` [Example Y4], for which the IC50 against CK2 ααββ was less than 10 nM; in test [1] (setting [2]), 2250 nM; at recombinant human PIM2, more than 2500 nM; with MDAMB453 (setting [3]), 1980 nM.

As for `CN(C)CCCOc1cccc(-c2cc(NC3CC3)n3ncc(/C=C4\NC(=O)NC4=O)c3n2)c1` [Example Z3], the IC50 at CK2 ααββ is less than 10 nM; in test [1] (setting [2]) it was 2920 nM; on recombinant human PIM2 it was 2210 nM; in the test with MDAMB453 (setting [3]), 284 nM.

In the case of `O=C1NC(=O)/C(=C/c2cnn3c(NC4CC4)cc(-c4cccc(NS(=O)(=O)C5CC5)c4)nc23)N1` [Example Z4], the IC50 at CK2 ααββ was less than 10 nM; in test [1] (setting [2]), 29000 nM; at recombinant human PIM2 it was more than 2500 nM; with MDAMB453 (setting [3]), 15700 nM.
